From patent US20020150990A1, “Hepatitis C virus peptides” (priority 1992, published 2002)
Ends that are not written are not given here.

Legend:
antibodies against HCV [1] = test: PEPSCAN analysis of overlapping octameric peptides of the HCV core protein N-terminal region with HCV-seropositive sera; format: binding, human; details: for Absorbance Units for different sera: read at 405 nm
Source text: The N-terminal 97 amino acid residues of HCV Core protein SEQ ID NO: 8 was mapped with PEPSCAN analysis. This process involved the serological analysis of sequentially overlapping peptides which spanned the region of interest, to identify epitopic domains. Ninety overlapping octameric peptides were synthesized on polypropylene pin supports according to the manufacturer's instructions (Cambridge Research Biochemicals), such that each peptide overlapped with the preceding sequence by the seven N-terminal residues, and with the subsequent peptide by the seven C-terminal residues. Serum or IgG purified from the serum of individuals confirmed to be seropositive for HCV were used to screen the peptides.
The assay procedure followed was performed basically as described in the manufacturers instruction manual. The time and temperature of the test antibody incubation differed from that prescribed, thereby decreasing the time taken for each assay.
Sera: A total of 16 sera were assayed by PEPSCAN. These consisted of 12 sera from paid U.S. Donors which were identified as being positive for antibodies against HCV in routine screening at the site of donation. The remaining four sera were from patients diagnosed as having non-A non-B hepatitis, and which were subsequently shown to contain antibodies to HCV. Sera were screened either as the crude serum fraction, or as a caprylic acid preparation. Caprylic acid purification of IgG from the sera was performed as described by Stienbuch and Audran (1969) Arch. Biochem. Biophys. 134, 279-284.
Assay: The assay format involves sequentially incubating the various pins in microwell plates containing blocking, test antibody, conjugate, and substrate solutions. The immune complex builds up on the pin with the enzyme labelled conjugate being immobilized on the bound anti-peptide antibody from the test serum. When the pin is then immersed in substrate, the enzyme brings about the colour change which is used to quantify the amount of anti-peptide antibody bound.
Blocking: Pins are immersed in 200 μl of Supercocktail (1% Ovalbumin, 1% bovine serum albumin in 0.15M phosphate buffered saline pH 7.2—0.1% Tween 20) and left to stand at room temperature for 1 hour.
Test antibody: The test antibody is diluted between 1/200 (IgG) and 1/1000 (serum) in supercocktail. The pins are then stood in this solution (175 μl/well) at 37° C. for 1 hour. After this incubation the pins are washed four times in 0.15M phosphate buffered saline pH 7.2—0.05% Tween 20, each at room temperature for 10 minutes.
Conjugate: Rabbit anti-human IgG coupled to horseradish peroxidase is diluted 1/1000 in supercocktail. The peptide bearing pins are then stood in this solution at room temperature for 1 hour. Once again the pins are then washed four times as above.
Substrate: The substrate solution is made up fresh for each assay. To 100 ml of 0.1M phosphate, 0.08M citrate buffer pH 4.0 is dissolved 50 mg of 2,2′-AZINO-bis (3-ethylbenzthiazo-linsulphonic acid (ABTS) and 0.3 μl/ml 30% hydrogen peroxide is added. The pins are immersed in the wells containing substrate solution (150 μl/well) and incubated at room temperature in the dark. Once sufficient colour has developed the reaction is stopped by removing the pins. The plates are then read immediately in a spectrophotometric plate reader at a wavelength of 405 nm. The absorbance values are then plotted against pin number. The epitopic domains are then defined as the continuous sequence of amino acids common to all positive pins in the domain i.e.

antibodies against HCV [2] = test: Replacement Net analysis of the core immunodominant epitope YLLPRR with 12 paid donor human sera; format: binding; details: n = 12 sera; for Frequency of relative signal strength: All: acceptable when signal 80% of the parent sequence or greater; for Frequency of relative signal strength: 2nd-5th / Frequency of relative signal strength: 6th-10th / Frequency of relative signal strength: Below 10th / Frequency of relative signal strength: Highest: rank of replacement residue at that position
Experimental: The Replacement Net Method was used to sequentially replace each of the constituent amino acid residues in the epitope with each of the other genetically encoded amino acids.
For Replacement Net analysis, a parent sequence is entered into the Epitope Mapping Software provided by Cambridge Research Biochemicals, and a set of replacement peptides is generated. This process was performed for the six amino acid residue immunodominant core epitope of HCV. The peptides were synthesized on polypropylene pins as directed by the manufacturer (CRB). The Assay format was identical to that followed for PEPSCAN above.
The Replacement Net of the core immunodominant epitope sequence Tyr-Leu-Leu-Pro-Arg-Arg (YLLPRR) (SEQ ID NO: 1 and 2) with the 12 paid donor human sera as described above was considered.
For each position within the epitope, the frequency of each replacement residue as an acceptable replacement for the parent sequence is given. Replacement residues were deemed acceptable when the signal of the new peptide was 80% of the parent sequence or greater.
The residue in italics is the parent sequence.

[3] = listed as 2-Leucine L, epitope position 2-Leucine, residue L
[4] = listed as 3-Leucine L, epitope position 3-Leucine, residue L
[5] = listed as 5-Arginine R, epitope position 5-Arginine, residue R
[6] = listed as 6-Arginine R, epitope position 6-Arginine, residue R

YLLPRR [YLLPRR]
Detection of the epitope by sera (antibodies against HCV [1]; 16 sera assayed by PEPSCAN): detected to a greater or lesser extent by all of the sera tested | Frequency of relative signal strength: All (antibodies against HCV [2]; listed as 1-Tyrosine Y): 11 | Frequency of relative signal strength: All (antibodies against HCV [2]; [3]): 8 | Frequency of relative signal strength: All (antibodies against HCV [2]; [4]): 3 | Frequency of relative signal strength: All (antibodies against HCV [2]; listed as 4-Proline P): 5 | Frequency of relative signal strength: All (antibodies against HCV [2]; [5]): 10 | Frequency of relative signal strength: All (antibodies against HCV [2]; [6]): 11 | Frequency of relative signal strength: 2nd-5th (antibodies against HCV [2]; listed as 1-Tyrosine Y): 3 | Frequency of relative signal strength: 6th-10th (antibodies against HCV [2]; listed as 1-Tyrosine Y): 5 | Frequency of relative signal strength: Below 10th (antibodies against HCV [2]; listed as 1-Tyrosine Y): 1 | Frequency of relative signal strength: Highest (antibodies against HCV [2]; listed as 1-Tyrosine Y): 2 | Frequency of relative signal strength: 2nd-5th (antibodies against HCV [2]; [3]): 2 | Frequency of relative signal strength: 6th-10th (antibodies against HCV [2]; [3]): 3 | Frequency of relative signal strength: Below 10th (antibodies against HCV [2]; [3]): 2 | Frequency of relative signal strength: Highest (antibodies against HCV [2]; [3]): 1 | Frequency of relative signal strength: 2nd-5th (antibodies against HCV [2]; [4]): 0 | Frequency of relative signal strength: 6th-10th (antibodies against HCV [2]; [4]): 1 | Frequency of relative signal strength: Below 10th (antibodies against HCV [2]; [4]): 0 | Frequency of relative signal strength: Highest (antibodies against HCV [2]; [4]): 2 | Frequency of relative signal strength: 2nd-5th (antibodies against HCV [2]; listed as 4-Proline P): 1 | Frequency of relative signal strength: 6th-10th (antibodies against HCV [2]; listed as 4-Proline P): 1 | Frequency of relative signal strength: Below 10th (antibodies against HCV [2]; listed as 4-Proline P): 0 | Frequency of relative signal strength: Highest (antibodies against HCV [2]; listed as 4-Proline P): 3 | Frequency of relative signal strength: 2nd-5th (antibodies against HCV [2]; [5]): 2 | Frequency of relative signal strength: 6th-10th (antibodies against HCV [2]; [5]): 1 | Frequency of relative signal strength: Below 10th (antibodies against HCV [2]; [5]): 7 | Frequency of relative signal strength: Highest (antibodies against HCV [2]; [5]): 0 | Frequency of relative signal strength: 2nd-5th (antibodies against HCV [2]; [6]): 1 | Frequency of relative signal strength: 6th-10th (antibodies against HCV [2]; [6]): 5 | Frequency of relative signal strength: Below 10th (antibodies against HCV [2]; [6]): 3 | Frequency of relative signal strength: Highest (antibodies against HCV [2]; [6]): 2

LPRRGPRL (pin support) [overlapping octameric peptide of HCV core protein on pin support]
Absorbance Units for different sera (antibodies against HCV [1]; serum 65221): 97 Absorbance Units | Absorbance Units for different sera (antibodies against HCV [1]; serum 65234): 145 Absorbance Units | Absorbance Units for different sera (antibodies against HCV [1]; serum 65241): 94 Absorbance Units | Absorbance Units for different sera (antibodies against HCV [1]; serum 65276): 139 Absorbance Units | Absorbance Units for different sera (antibodies against HCV [1]; serum L): 148 Absorbance Units

RRGPRLGV (pin support) [overlapping octameric peptide of HCV core protein on pin support]
Absorbance Units for different sera (antibodies against HCV [1]; serum 65221): 145 Absorbance Units | Absorbance Units for different sera (antibodies against HCV [1]; serum 65234): 146 Absorbance Units | Absorbance Units for different sera (antibodies against HCV [1]; serum 65241): 85 Absorbance Units | Absorbance Units for different sera (antibodies against HCV [1]; serum 65276): 150 Absorbance Units | Absorbance Units for different sera (antibodies against HCV [1]; serum L): 123 Absorbance Units

PRRGPPLG [overlapping octameric peptide of HCV core protein on pin support]
Absorbance Units for different sera (antibodies against HCV [1]; serum 65221): 85 Absorbance Units | Absorbance Units for different sera (antibodies against HCV [1]; serum 65234): 109 Absorbance Units | Absorbance Units for different sera (antibodies against HCV [1]; serum 65241): 73 Absorbance Units | Absorbance Units for different sera (antibodies against HCV [1]; serum 65276): 129 Absorbance Units | Absorbance Units for different sera (antibodies against HCV [1]; serum L): 110 Absorbance Units
